In data set [1] the test system is Seasonal influenza A/Egypt/NRC098/2019(H1N1). Description: microbe, parasite or virus in culture. Format: cell-based, seasonal human influenza A/H1N1 virus. The note with it: H1N1, MDCK, in Homo sapiens.
In another data set the test system is neuraminidase. Description: Colorimetric neuraminidase inhibition assay. Format: biochemical.

One compound from article PMC9670689 (ACS Omega, 2022) can be followed below.

The structures appear in SMILES notation. In brackets after ≈: the same amount, converted by molar mass.

Consider `CC1=C2[C@H]3OC(=O)[C@@H](C)[C@@H]3CC[C@@]2(C)C=CC1=O` [santonin], for which, in data set [1], it took 2.91 µg/mL (≈ 11.8 µM) to reach half-maximal inhibition (IC50). Also, in the data set with neuraminidase (all tested concentrations (10 mM to 1 μM), compared to zanamivir), the “neuraminidase inhibition activity (in words)” value was “dose-dependant neuraminidase inhibition activities”. The neuraminidase activity in the data set with neuraminidase (following treatment with 1 μM) stood at 0.65 ± 0.18 units/mL; in the data set on neuraminidase (following treatment with 10 μM), 0.42 ± 0.08 units/mL; in the data set on neuraminidase (following treatment with 100 μM) it was 0.41 ± 0.06 units/mL; in the data set on neuraminidase (following treatment with 1 mM), 0.35 ± 0.11 units/mL; in the data set with neuraminidase (following treatment with 10 mM), 0.14 ± 0.097 units/mL. Also, the “toxic effect in MDCK cells (in words)” value with MDCK cells is given as “slightly toxic effect”.

For orientation: IC50 means the concentration needed to halve the response being measured.
